Patent publication US20110065749A1, “METHOD AND PHARMACEUTICAL COMPOSITION FOR TREATMENT OF MENTAL DISORDERS” (ACTIVE CO. LTD., priority 2008, published 2011)
Counter-ions that a name gives are not always drawn.

Assays:
[1] = system: Attention Deficit Hyperactivity Disorder (ADHD); assay: Case 1: ADHD patient treated with Cephadol; assay type: in vivo, human
Protocol: Case 1: Attention Deficit Hyperactivity Disorder (ADHD)
Patient was a person, who had often shown violent behaviors. Quarreling with a bad-mannered person on the road and performing violent acts such as hitting had occurred once or twice a week. […] When they discontinued the medication with 75 mg/day Cephadol®, the symptom returned to the previous state. The effect of Cephadol® appeared in about two days, and the symptom returned to the original state in 5 days after discontinuation of the drug.

Refractory Depression = assay: Case 2: refractory depression patient, HAMD; assay type: in vivo, human
Source text: For evaluation of the state of depression, for example, Hamilton's rating scale for depression (HAMD) is available. The HAMD was developed by Max Hamilton in 1960 for the purpose of measuring the severity of a patient diagnosed with depression (Hamilton, M., Journal of Neurology, Neurosurgery & Psychiatry, 23-56-62 (1960) and Hamilton, M., “Development of rating scale for primary depressive illness”, British Journal of Social and Clinical Psychology, 6: 278-296 (1967)). In view of its high usefulness, it is a representative scale of evaluation for depression, widely used in clinical researches and practices. The 17 item version is used for clinical trials of antidepressants in Japan, whereas the 21 item version and the 24 item version are used in Europe or other countries. When the severity is calculated using Hamilton's rating scale for depression (HAMD), each item is evaluated with three grades of 0-2, or five grades of 0-4. For example, the case is diagnosed as severe where the point is 20 or higher and, as the point decreases, the symptom is diagnosed as being improved. Case 2: Refractory Depression Patient was a person, who was unresponsive to any combination of SSRIs, SNRIs, tricyclic antidepressants, and antianxiety agents in their respective maximum doses. The score of HAMD was 23 points. […] Increasing the dose of Cephadol® to 150 mg/day improved the score of HAMD to 3 points. The improvement lasted even after other antidepressants were removed. Even 3 months later, the score of HAMD was still 3 points. When the dose of Cephadol® was reduced to 75 mg/day, the score of HAMD became 13 points after one week.

[2] = system: Behavioral and Psychological Symptoms of Dementia; assay: Case 5: behavioral and psychological symptoms of dementia; assay type: in vivo, human; conditions: 100 mg/day
Source text: Case 5: Effect on Behavioral and Psychological Symptoms of Dementia Patient was a person with dementia, who was irritable and easily excited, and had persecutory delusion.

Bulimia = assay: Case 8: bulimia (2) patient; assay type: in vivo, human; conditions: 150 mg/day
Source text: Patient was a person, who had been suffering from bulimia. The bulimia persisted even after their marriage and childbearing.

depression = assay: Case 9: depressed symptoms patient, HAMD; assay type: in vivo, human; conditions: 75 mg/day
Source text: For evaluation of the state of depression, for example, Hamilton's rating scale for depression (HAMD) is available. The HAMD was developed by Max Hamilton in 1960 for the purpose of measuring the severity of a patient diagnosed with depression (Hamilton, M., Journal of Neurology, Neurosurgery & Psychiatry, 23-56-62 (1960) and Hamilton, M., “Development of rating scale for primary depressive illness”, British Journal of Social and Clinical Psychology, 6: 278-296 (1967)). In view of its high usefulness, it is a representative scale of evaluation for depression, widely used in clinical researches and practices. The 17 item version is used for clinical trials of antidepressants in Japan, whereas the 21 item version and the 24 item version are used in Europe or other countries.
When the severity is calculated using Hamilton's rating scale for depression (HAMD), each item is evaluated with three grades of 0-2, or five grades of 0-4. For example, the case is diagnosed as severe where the point is 20 or higher and, as the point decreases, the symptom is diagnosed as being improved.
Case 9: Depressed Symptoms
Administration to the patient of 75 mg/day Cephadol® reduced the HAMD score from 20 points to 7 points after 3 days.

[3] = system: Panic Disorder and Multiple Personality Disorder; assay: Case 10: panic disorder and multiple personality disorder patient; assay type: in vivo, human
Source text: Case 10: Panic Disorder and Multiple Personality Disorder
Patient was a single person, who had been treated at several psychiatric hospitals. […] They report that the medicine is best to calm their mind, and easier to take than any other drugs that they have ever taken.

Fibromyalgia [4] = assay: Case 15: fibromyalgia (1) patient; assay type: in vivo, human
Protocol: They then visited the inventor's clinic. When the inventor started the treatment with 75 mg/day Cephadol®, systemic pain of the patient was improved in two days. […] As a result, they became able to perform usual household work, go outside, and further make a trip.

Fibromyalgia [5] = assay: Case 17: fibromyalgia (3) patient; assay type: in vivo, human
Source text: […] Being unresponsive to prescribed medicines, they were instructed to do gentle stretching exercise and massage, as well as thermotherapy on affected areas. However, their arthralgia was so terrible that they could not perform stretching exercise or other directions. They had pain at all the 18 tender points of the whole body, a jaw abnormality, and a strong pain at both knee joints, which made their unable to go to hospital on foot.

Fibromyalgia [6] = assay: Case 18: fibromyalgia (4) patient; assay type: in vivo, human
Source text: Case 18: Fibromyalgia (4)
A person (housewife) is a patient with depression, having received regular medical treatment since seven years ago. […] However, a diagnosis with autoimmune disease or inflammatory disease was negative from their blood test. Due to back pain and fingertip pain, they were unable to make household work, and it was painful for them to hold even a light object by hand. They had pain at 15 points among the 18 tender points of the whole body, and was diagnosed with fibromyalgia. […] They had to stay in bed all day long, and such a condition lasted for the long term.

[7] = system: evoked potential of hypothalamus by vestibular nuclei stimulation; conditions: rat experiments; cited from earlier work
[8] = system: nystagmus by experimental disorder of balance function; conditions: rabbit experiments; cited from earlier work

For OC(CCCN1CCCCC1)(c1ccccc1)c1ccccc1 [Cephadol®, 1,1-diphenyl-4-piperidine-1-ylbuthan-1-ol monohydrochloride], which side effects ([1]; 75 mg/day) is on record?
Its side effects is “no side effects”.

And the impulsivity ([1]; 75 mg/day, on day seven)?
Its impulsivity is “disappearance of the impulsivity”.

What about the impulsivity ([1]; 75 mg/day, on day two) of the same compound?
Its impulsivity is “reduction of impulsivity”.

What about the “time until the symptom returned to the original state after discontinuation of the drug” value ([1]; after discontinuation of 75 mg/day) of the same compound?
Its value is 5 days.

And the depressive symptom (Refractory Depression; 75 mg/day, HAMD 23 points before)?
The depressive symptom was “significant improvement”.

And the “score of HAMD” value (Refractory Depression; 150 mg/day, 3 months later, other antidepressants removed)?
The value was 3 points.

And the side effects (Refractory Depression; 75-150 mg/day)?
Its side effects is “no side effects”.

And the “score of HAMD” value (Refractory Depression; dose increased to 150 mg/day, 23 points before)?
Its value is 3 points.

And the “score of HAMD” value (Refractory Depression; dose reduced to 75 mg/day, after one week)?
Its value is 13 points.

And the mental stability [2]?
The mental stability was “significantly improved mental stability”.

And the “nuisance behaviors caused by the persecutory delusion” value [2]?
The value was “prevented their nuisance behaviors to other people”.

And the side effects [2]?
Its side effects is “no side effects”.

What about the “duration of the effect” value (Bulimia) of the same compound?
The value was “more than two”.

What about the overeating (Bulimia) of the same compound?
The overeating was “stopped their overeating”.

And the side effects (Bulimia; more than two months)?
The side effects was “without any side effects”.

What about the side effects (depression) of the same compound?
The side effects was “There were side effects”.

What about the HAMD score (depression; after 3 days, from 20 points) of the same compound?
The HAMD score was 7 points.

And the panic disorder ([3]; 75 mg/day for one week, then 150 mg/day)?
Its panic disorder is “significant improvement of panic disorder”.

What about the transformation of personality ([3]; 150 mg/day, previously 5 to 10 times a month) of the same compound?
Its transformation of personality is “improved”.

What about the antianxiety effect ([3]; 75-150 mg/day) of the same compound?
The antianxiety effect was “strong antianxiety effect”.

And the systemic pain (Fibromyalgia [4]; 75 mg/day, in two days)?
The systemic pain was “improved”.

What about the “mobility of large joints (objective)” value (Fibromyalgia [4]; 150 mg/day) of the same compound?
Its value is “the mobility of large joints increased”.

What about the “pain at 18 tender points including low back pain” value (Fibromyalgia [4]; 150 mg/day) of the same compound?
The value was “totally improved”.

And the arthralgia (Fibromyalgia [4]; 150 mg/day, increased one week later)?
The arthralgia was “complete elimination of arthralgia”.

What about the “pain at both knee joints” value (Fibromyalgia [5]; 75 mg/day) of the same compound?
Its value is “improved the pain at both knee joints”.

And the systemic pain (Fibromyalgia [5]; 75 mg/day)?
The systemic pain was “eliminated the systemic pain”.

And the “mobility of large joints (objective)” value (Fibromyalgia [5]; 125 mg/day)?
Its value is “the mobility of large joints increased”.

What about the “pain at both knee joints” value (Fibromyalgia [5]; dosage increased to 125 mg/day) of the same compound?
The value was “the pain at both knee joints also disappeared”.

And the “pain at both knee joints” value (Fibromyalgia [5]; dosage reduced to 75 mg/day, on the next day)?
The value was “recurrence of the pain at both knee joints”.

What about the “pain at both knee joints” value (Fibromyalgia [5]; dose re-increased to 125 mg/day, on the next day) of the same compound?
The value was “eliminated the pain at both knee joints”.

What about the malaise (Fibromyalgia [6]; 75 mg/day) of the same compound?
Its malaise is “significant improvement in malaise”.

What about the “mobility of large joints (objective)” value (Fibromyalgia [6]; 125 mg/day) of the same compound?
Its value is “the mobility of large joints increased”.

And the “back pain and fingertip pain” value (Fibromyalgia [6]; dose increased to 125 mg/day)?
Its value is “improved the back pain and fingertip pain”.

And the “evoked potential of hypothalamus by vestibular nuclei stimulation” value [7]?
Its value is “inhibited the evoked potential of hypothalamus by vestibular nuclei stimulation”.

And the “emergence of nystagmus by experimental disorder of balance function” value [8]?
Its value is “inhibited the emergence of nystagmus by experimental disorder of balance function”.
